Test results from paper PMC7154863, “The First Case of Glyphosate Resistance in Johnsongrass (Sorghum halepense (L.) Pers.) in Europe” (Plants, 2020).

System: T1, 5-enolpyruvylshikimate-3-phosphate synthase (EPSPS)
T1 construct: native enzyme in leaf extract, not purified to homogeneity; partial EPSPS2 cDNA (543-bp fragment) without Pro106 or Thr102 substitution
Assay: EnzCheck phosphate release assay, leaf extract, log-logistic fit
Type: biochemical, Sorghum halepense
Conditions: range of estimates over seven populations without significant differences: 2.6 (GR6), 3.4 (GR1); the others only in the figure; glyphosate 0-1000 µM; 360 nm, 10 min; read-out: I50

SMILES: O=C(O)CNCP(=O)(O)O [glyphosate]
- IC50: 2600 to 3400 nM
